In paper PMC10714399, “Open Source Antibiotics: Simple Diarylimidazoles Are Potent against Methicillin-Resistant Staphylococcus aureus” (ACS Infectious Diseases, 2023):
Converted amounts (≈) assume the structure as drawn. Like-named read-outs stand apart in the source and are kept apart here.

Columns and labels:
[1] = system: Staphylococcus aureus NCTC 13373 (mecA-positive; methicillin-resistant); assay: In vitro antibacterial activity, MIC (UCL School of Pharmacy assay), MRSA; assay type: cell-based; settings: for MIC: Staphylococcus aureus
Method: (§1) Staphylococcus aureus NCTC 13373 (mecA-positive; methicillin-resistant, NCTC 13373) was supplied by the National Collection of Type Cultures (NCTC), Public Health England, United Kingdom. Other organisms, S. aureus ATCC 25923 (methicillin-susceptible) and Enterococcus faecalis ATCC 51299 (vanA-positive; vancomycin-resistant), were obtained from the American Type Culture Collection (ATCC) via LGC Standards, UK. A suspension of each organism was prepared from an overnight plate culture (tryptone soya agar) in phosphate-buffered saline (PBS) and adjusted to an absorbance reading at 600 nm of 0.1, which is approximately equivalent to 1 × 10^8 colony-forming units (CFU) per mL. The cultures were further diluted 1:100 in isosensitest broth (Oxoid, United Kingdom) before 100 μL was used to inoculate each well of a 96-well plate that contained diluted samples of the OSA series. Compounds were evaluated over a 2-fold dilution range from 32 to 0.03 μg/mL. Stocks of the samples were prepared in 100% DMSO at […] before being diluted in isosenstitest broth. The highest concentration of DMSO present was 2%, which has been previously shown not to inhibit the growth of the microorganisms (data not shown). […] Vancomycin was used as a quality control compound.

[2] = system: S. aureus ATCC 25923 (methicillin-susceptible); assay: In vitro antibacterial activity, MIC (UCL), MSSA; assay type: cell-based, Staphylococcus aureus; settings: for MIC: Staphylococcus aureus
Method: as §1

[3] = UCL assay, read-out: MSSA MIC (ug/mL) (UCL)
[4] = UCL assay, read-out: MRSA MIC (ug/mL) (UCL)

## CSc1cccc(-c2c(-c3ccccn3)nc3n2CCC3)c1 [compound 826]
[1]; read-out: MRSA MIC
  MIC: 4 µg/mL (≈ 13 µM)

## Fc1ccc(Nc2c(-c3ccc[nH]3)nc3ccccn23)cc1 [OSA_001009]
[2]; read-out: MSSA MIC (UCL)
  MIC: > 32 µg/mL
[1]; UCL, read-out: MRSA MIC (UCL)
  MIC: > 32 µg/mL

## COc1cccn2c(N(C)c3ccc(F)cc3)c(-c3ccccn3)nc12 [compound 1001]
[2]; 16 h, read-out: MSSA MIC
  MIC: 16 µg/mL (≈ 45.9 µM)
[1]; 16 h, read-out: MRSA MIC
  MIC: 16 µg/mL (≈ 45.9 µM)

## CC(C)CN(c1ccc(F)cc1)c1c(-c2ccccn2)nc2ccc(F)cn12 [compound 1024]
[2]
  MSSA MIC: 8 µg/mL
[1]
  MRSA MIC: 8 µg/mL

## CN(c1ccc(F)cc1)c1c(-c2ccccn2)nc2c(F)cccn12 [compound 1006]
[2]; 16 h, read-out: MSSA MIC
  MIC: > 32 µg/mL
[1]; 16 h, read-out: MRSA MIC
  MIC: > 32 µg/mL

## c1ccc(-c2nc3n(c2-c2ccc4ccoc4c2)CCC3)nc1 [compound 829]
[1]; read-out: MRSA MIC
  MIC: 4 µg/mL (≈ 13.3 µM)

## COc1ccc(-c2c(-c3ccccn3)nc3n2CCC3)cc1OC [compound 820]
[2]; read-out: MSSA MIC
  MIC: > 32 µg/mL
[1]
  MRSA MIC: 32 µg/mL
[1]; 16 h, read-out: MRSA MIC
  MIC: > 32 µg/mL
[1]; read-out: MRSA MIC
  MIC: > 32 µg/mL

## Cc1ccc(-c2c(-c3ccccn3)nc3cc(C(N)=O)ccn23)cc1 [compound 1015]
[2]
  MSSA MIC: > 32 µg/mL
[1]
  MRSA MIC: > 32 µg/mL

## Cc1ccc(-c2c(-c3ccccn3)nc3cc(N4CCNCC4)ccn23)cc1 [OSA_001014]
[2]; read-out: MSSA MIC (UCL)
  MIC: > 32 µg/mL
[1]; UCL, read-out: MRSA MIC (UCL)
  MIC: > 32 µg/mL

## N#Cc1ccc(C(=O)Nc2c(-c3ccccn3)nc3ccccn23)cc1 [compound 1016]
[2]; read-out: MSSA MIC
  MIC: > 32 µg/mL
[1]; read-out: MRSA MIC
  MIC: > 32 µg/mL

## c1ccc(-c2nc3n(c2-c2ccc4scnc4c2)CCC3)nc1 [OSA_000835]
[1]; UCL, read-out: MRSA MIC (UCL)
  MIC: 32 µg/mL (≈ 101 µM)

## N#Cc1ccc(-c2c(-c3ccccn3)nc3cccnn23)cc1 [OSA_001103]
[2]; [3]
  MIC: > 32 µg/mL
[1]; [4]
  MIC: > 32 µg/mL

## CC(C)CN(c1ccc(F)cc1)c1c(-c2ccccn2)nc2cccnn12 [OSA_001036]
[2]; [3]
  MIC: 32 µg/mL (≈ 88.5 µM)
[1]; [4]
  MIC: 32 µg/mL (≈ 88.5 µM)

## c1ccc(-c2nc3n(c2-c2csc4ccccc24)CCC3)nc1 [compound 832]
[1]; read-out: MRSA MIC
  MIC: 8 µg/mL (≈ 25.2 µM)

## CN(c1ccc(F)cc1)c1c(-c2ccccn2)nc2ccc(Br)cn12 [compound 1003]
[2]; read-out: MSSA MIC
  MIC: 16 µg/mL (≈ 40.3 µM)
[1]; read-out: MRSA MIC
  MIC: 16 µg/mL (≈ 40.3 µM)

## COc1cccc(-c2c(-c3ccccn3)nc3n2CCC3)c1 [compound 825]
[1]; read-out: MRSA MIC
  MIC: 16 µg/mL (≈ 54.9 µM)

## c1ccc(-c2nc3n(c2-c2ccc4sccc4c2)CCC3)cc1 [compound 834]
[1]
  MRSA MIC: > 32 µg/mL

## CSc1ccc(-c2c(-c3ccccn3)nc3n2CCC3)cc1 [compound 824]
[1]; read-out: MRSA MIC
  MIC: 4 µg/mL (≈ 13 µM)

## COc1ccc(-c2nc3ccccn3c2N(CC(C)C)c2ccc(F)cc2)nc1 [OSA_001034]
[1]; [4]
  MIC: 8 µg/mL (≈ 20.5 µM)

## Fc1ccc(Nc2c(-c3nccs3)nc3ccccn23)cc1 [compound 1008]
[2]; read-out: MSSA MIC
  MIC: > 32 µg/mL
[1]; read-out: MRSA MIC
  MIC: > 32 µg/mL

## N#Cc1ccc(-c2c(-c3ncccn3)nc3ccccn23)cc1 [compound 1107]
[2]
  MSSA MIC: > 32 µg/mL
[1]
  MRSA MIC: > 32 µg/mL

## Cc1ccc(-c2c(-c3ccccn3)nc3cc(C#N)ccn23)cc1 [OSA_001013]
[2]; read-out: MSSA MIC (UCL)
  MIC: > 32 µg/mL
[1]; UCL, read-out: MRSA MIC (UCL)
  MIC: > 32 µg/mL

## c1ccc(-c2nc3ccccn3c2-c2ccc3c(c2)OCO3)nc1 [compound 814]
[1]; read-out: MRSA MIC
  MIC: 32 µg/mL (≈ 101 µM)

## c1cncc(-c2nc3n(c2-c2ccc4c(c2)OCO4)CCC3)c1 [compound 816]
[1]
  MRSA MIC: > 32 µg/mL

## Fc1ccc(Nc2c(-c3ccc[nH]3)nc3ccccn23)cc1 [compound 1009]
[2]; read-out: MSSA MIC
  MIC: > 32 µg/mL
[1]; read-out: MRSA MIC
  MIC: > 32 µg/mL

## CC(C)CN(c1ccc(F)cc1)c1c(-c2ccccn2)nc2cc(F)ccn12 [compound 1023]
[2]
  MSSA MIC: 4 µg/mL
[1]
  MRSA MIC: 8 µg/mL

## N#Cc1ccc(C(=O)Nc2c(-c3ccccn3)nc3ccccn23)cc1 [OSA_001016]
[2]; read-out: MSSA MIC (UCL)
  MIC: > 32 µg/mL
[1]; UCL, read-out: MRSA MIC (UCL)
  MIC: > 32 µg/mL

## COc1ccc(-c2nc3ccccn3c2N(CC(C)C)c2ccc(F)cc2)nc1 [compound 1034]
[1]
  MRSA MIC: 8 µg/mL

## N#Cc1ccc(-c2c(-c3ccccn3)nc3ncccn23)cc1 [compound 1105]
[2]
  MSSA MIC: > 32 µg/mL
[1]
  MRSA MIC: > 32 µg/mL

## c1ccc(-c2nc3n(c2-c2ccc4c(c2)OCC4)CCC3)nc1 [compound 828]
[1]
  activity against MRSA, in words: ineffective
[1]; read-out: MRSA MIC
  MIC: 32 µg/mL (≈ 105 µM)

## CC(C)CN(c1ccc(F)cc1)c1c(-c2nccs2)nc2ccccn12 [compound 1010]
[2]
  MSSA MIC: > 32 µg/mL
[1]
  MRSA MIC: > 32 µg/mL

## CC(C)CN(c1ccc(F)cc1)c1c(-c2ccccn2)nc2cnccn12 [compound 1035]
[2]; read-out: MSSA MIC
  MIC: > 32 µg/mL
[1]; read-out: MRSA MIC
  MIC: > 32 µg/mL

## Cc1ccc(C(=O)Nc2c(-c3ccccn3)nc3ccccn23)cc1 [compound 1017]
[2]; read-out: MSSA MIC
  MIC: > 32 µg/mL
[1]; read-out: MRSA MIC
  MIC: > 32 µg/mL

## N#Cc1ccc(-c2c(-c3ccccn3)nc3ccccn23)cc1 [compound 1104]
[2]
  MSSA MIC: > 32 µg/mL
[1]
  MRSA MIC: > 32 µg/mL
